Experimental data as given in US20160311812A1, “ADENOSINE A1 AGONISTS AS MEDICAMENTS FOR KIDNEY DISORDERS” (BAYER PHARMA AKTIENGESELLSCHAFT, priority 2013, published 2016).

What was measured:
[1] = system: 5/6 nephrectomy rat model; test: Functional and structural renal dysfunction in 5/6 nephrectomized rats; type: in vivo; conditions: 4 weeks; for End organ injury marker concentration in the urine: hFABP / End organ injury marker concentration in the urine: hFABP per creatinine: ELISA; for Kidney injury marker-1 [gene expression] / Lipocalin-2 [gene expression] / Osteopontin [gene expression]: renal cortex
From the text: (§1) B-3. Effects of Partial A1 Agonists on Renal and Cardiac Function in 5/6 Nephrectomized Rats (Example 1 for Chronic Kidney Disorder)
(§2) 5/6 nephrectomy in the rat, in which one kidney and the renal cortex of the second kidney are surgically removed (=5/6 of functional kidney tissue) is an established animal model for interstitial renal fibrosis and chronic renal insufficiency [C. Fleck et al., “Suitability of 5/6 nephrectomy (5/6NX) for the induction of interstitial renal fibrosis in rats Influence of sex, strain, and surgical procedure”, Exp. Tox. Pathology 2006, 57, 195-205]. The model is characterized by progressive proteinuria, disturbed tubular electrolyte transport, a reduced glomerular filtration rate, an increase in urinary output, interstitial fibrosis with reactively occurring lymphocyte infiltrates, glomerulosclerosis and tubular atrophy. The level of proteinuria is a specific index of the renal function prognosis: the higher the proteinuria, the greater is the functional and structural kidney injury and therefore progression of chronic to terminal renal insufficiency (uraemia). During monitoring of therapy, e.g. with the ACE inhibitor enalapril, the course of proteinuria provides information on the functional and structural response to the therapy and thus on the renal function prognosis. As a result of the renal insufficiency and accumulation of umemic toxins, in the animals there is secondary development of a umemic cardiomyopathy, depending on the severity associated with hypertension, increased heart rate, reduced parasympathetic tone, myocardial, left-ventricular hypertrophy and fibrosis, diastolic dysfunction and an increased prevalence of arrhythmias [Svilerova et al. 2010 Physiol Res 59: S81-S88).
(§3) Procedure: male Wistar:WU rats (210-250 g) from Charles River had the left kidney and the renal cortex of the right kidney removed (=SNX) in one session; sham-operated rats served as control group (=SOP). The following groups, each with 12 rats per group, were investigated:
(§4) Group 2 SNX+placebo (60 g glycerol+100 g water+969 g PEG-400)
(§5) Group 3 SNX+10 mg/kg body weight/day enalapril (reference therapy, in the drinking water)
(§6) Group 4 SNX+0.1 mg/kg body weight/day partial A1 agonist EXAMPLE 1, p.o. in placebo
(§7) Group 5 SNX+1.0 mg/kg body weight/day partial A1 agonist EXAMPLE 1, p.o. in placebo
(§8) Group 6 SNX+0.3 mg/kg body weight/day partial A1 agonist EXAMPLE 4, p.o. in placebo
(§9) Group 7 SNX+3.0 mg/kg body weight/day partial A1 agonist EXAMPLE 4, p.o. in placebo
(§10) Three weeks after 5/6 nephrectomy, the rats developed manifest proteinuria, from this time point the rats were treated for a further four weeks corresponding to the groups stated above. At the end of the protocol, the following samples were obtained/measurements were carried out: eight-hour urine collection with determination of the concentration of hFABP in the urine by ELISA (Rat/Mouse h-FABP ELISA, Hycultbiotech), as marker for end organ damage, invasive measurement of the isoprenaline-induced increase (cumulatively 12.5 ng-250 ng/kg isoprenaline, i.v.) in systolic and diastolic left ventricular function, and TaqMan analyses of renal injury markers in the renal cortex.

[2] = system: 5/6 nephrectomy rat model; test: Left-ventricular diastolic dysfunction under isoprenaline infusion in 5/6 nephrectomized rats; type: in vivo; conditions: 4 weeks
From the text: as §1, §2, §3, §4, §5, §6, §7, §8, §9, §10

[3] = system: unilaterally nephrectomized SHR; test: Functional and structural renal dysfunction in unilaterally nephrectomized spontaneously hypertensive rats; type: in vivo, rat; conditions: Group 5: SNX + 3.0 mg/kg body weight/day p.o., 4 weeks
From the text: (§11) B-4. Effects of Partial A1 Agonists on Renal and Cardiac Function in Unilaterally Nephrectomized and Spontaneously Hypertensive Rats (Example 2 for Chronic Kidney Disorders)
(§12) Unilaterally nephrectomized, spontaneously hypertensive rats (SHR) are an established animal model for investigating the development and progression of hypertensive damage of the glomeruli in the remaining kidney [H. Kinuno et al., “Effects of uninephrectomy on renal structural properties in spontaneously hypertensive rats”, Clin and Exp Pharmacol and Physiol 2005, 32, 173-178]. […] Furthermore, renal excretion of substances usually eliminated in the urine, such as creatinine and urea, is reduced and the electrolyte metabolism is disturbed, the latter being associated with volume retention.
(§13) Procedure: male SHR rats (180-220 g) from Taconic had the left kidney removed in one session (=UNX). Normotensive Wistar Kyoto rats (WKY) from Taconic served as control. The following groups, each with 12 rats per group, were investigated:
(§14) Group 2 UNX+placebo (60 g glycerol+100 g water+969 g PEG-400)
(§15) Group 3 UNX+10 mg/kg body weight/day enalapril (reference therapy, in the drinking water)
(§16) Group 4 SNX+1.0 mg/kg body weight/day partial A1 EXAMPLE 1, p.o. in placebo
(§17) Group 5 SNX+3.0 mg/kg body weight/day partial A1 EXAMPLE 4, p.o. in placebo
(§18) Three weeks after unilateral nephrectomy, the SHRs developed manifest hypertensive damage of the glomeruli in the remaining kidney, from this time point on the rats were treated for a further four weeks corresponding to the groups given above. At the end of the protocol, the following samples were obtained/measurements were carried out: eight-hour urine collection, invasive measurement of systolic and diastolic left ventricular function, and TaqMan analyses of renal injury markers in the renal cortex.

[4] = system: unilaterally nephrectomized SHR; test: Functional and structural myocardial dysfunction in unilaterally nephrectomized spontaneously hypertensive rats; type: in vivo, rat; conditions: Group 5: SNX + 3.0 mg/kg body weight/day p.o., 4 weeks
From the text: as §11, §12, §13, §14, §15, §16, §17, §18

[5] = Group 6: SNX + 0.3 mg/kg body weight/day p.o.
[6] = Group 7: SNX + 3.0 mg/kg body weight/day p.o.

N#Cc1c(SCc2csc(-c3ccc(Cl)cc3)n2)nc(N2CCCC2)c(C#N)c1-c1ccc(OCCO)cc1 [EXAMPLE 4, 2-({[2-(4-Chlorophenyl)-1,3-thiazol-4-yl]methyl}sulphanyl)-4-[4-(2-hydroxyethoxy)phenyl]-6-(pyrrolidin-1-yl)pyridine-3,5-dicarbonitrile]
P-creatinine [1, 5]: 64 ± 1 µmol/L
P-urea [1, 5]: 11 ± 0.3 mmol/L
U-creatinine [1, 5]: 3.1 ± 0.2 μmol/ml urine/kg BW/h
U-protein [1, 5]: 1.70 ± 0.29 μmol/ml urine/kg BW/h
U-sodium [1, 5]: 19 ± 3 μmol/ml urine/kg BW/h
U-urea [1, 5]: 330 ± 25 μmol/ml urine/kg BW/h
Urine volume [1, 5]: 1.8 ± 0.1 ml/kg BW/h
End organ injury marker concentration in the urine: hFABP [1, 5]: 3125 ± 497 pg hFABP/ml urine/h
End organ injury marker concentration in the urine: hFABP per creatinine [1, 5]: 386 ± 57 pg hFABP/μmol creatinine
Kidney injury marker-1 [gene expression] [1, 5]: 68 ± 14 rel. expression
Lipocalin-2 [gene expression] [1, 5]: 340 ± 49 rel. expression
Osteopontin [gene expression] [1, 5]: 6882 ± 1240 rel. expression
P-creatinine [1, 6]: 63 ± 1 µmol/L
P-urea [1, 6]: 11 ± 0.3 mmol/L
U-creatinine [1, 6]: 2.7 ± 0.3 μmol/ml urine/kg BW/h
U-protein [1, 6]: 0.97 ± 0.12 μmol/ml urine/kg BW/h
U-sodium [1, 6]: 43 ± 5 μmol/ml urine/kg BW/h
U-urea [1, 6]: 281 ± 30 μmol/ml urine/kg BW/h
Urine volume [1, 6]: 1.8 ± 0.2 ml/kg BW/h
End organ injury marker concentration in the urine: hFABP [1, 6]: 1706 ± 249 pg hFABP/ml urine/h
End organ injury marker concentration in the urine: hFABP per creatinine [1, 6]: 218 ± 39 pg hFABP/μmol creatinine
Kidney injury marker-1 [gene expression] [1, 6]: 56 ± 18 rel. expression
Lipocalin-2 [gene expression] [1, 6]: 283 ± 45 rel. expression
Osteopontin [gene expression] [1, 6]: 6340 ± 1656 rel. expression
left-ventricular pressure decrease as a function of time ([2]; isoprenaline 0 ng/kg body weight, Group 6: SNX + 0.3 mg/kg body weight/day p.o.): 6518 ± 221 mmHg/s
left-ventricular pressure decrease as a function of time ([2]; isoprenaline 0 ng/kg body weight, Group 7: SNX + 3.0 mg/kg body weight/day p.o.): 6884 ± 383 mmHg/s
left-ventricular pressure decrease as a function of time ([2]; isoprenaline 12.5 ng/kg body weight, Group 6: SNX + 0.3 mg/kg body weight/day p.o.): 7733 ± 233 mmHg/s
left-ventricular pressure decrease as a function of time ([2]; isoprenaline 12.5 ng/kg body weight, Group 7: SNX + 3.0 mg/kg body weight/day p.o.): 8369 ± 395 mmHg/s
left-ventricular pressure decrease as a function of time ([2]; isoprenaline 25 ng/kg body weight, Group 6: SNX + 0.3 mg/kg body weight/day p.o.): 8001 ± 224 mmHg/s
left-ventricular pressure decrease as a function of time ([2]; isoprenaline 25 ng/kg body weight, Group 7: SNX + 3.0 mg/kg body weight/day p.o.): 8557 ± 396 mmHg/s
left-ventricular pressure decrease as a function of time ([2]; isoprenaline 50 ng/kg body weight, Group 6: SNX + 0.3 mg/kg body weight/day p.o.): 8763 ± 195 mmHg/s
left-ventricular pressure decrease as a function of time ([2]; isoprenaline 50 ng/kg body weight, Group 7: SNX + 3.0 mg/kg body weight/day p.o.): 9100 ± 341 mmHg/s
left-ventricular pressure decrease as a function of time ([2]; isoprenaline 100 ng/kg body weight, Group 6: SNX + 0.3 mg/kg body weight/day p.o.): 9621 ± 212 mmHg/s
left-ventricular pressure decrease as a function of time ([2]; isoprenaline 100 ng/kg body weight, Group 7: SNX + 3.0 mg/kg body weight/day p.o.): 10263 ± 294 mmHg/s
left-ventricular pressure decrease as a function of time ([2]; isoprenaline 250 ng/kg body weight, Group 6: SNX + 0.3 mg/kg body weight/day p.o.): 9968 ± 162 mmHg/s
left-ventricular pressure decrease as a function of time ([2]; isoprenaline 250 ng/kg body weight, Group 7: SNX + 3.0 mg/kg body weight/day p.o.): 10385 ± 352 mmHg/s
P-creatinine [3]: 58 ± 0.6 µmol/L
P-urea [3]: 8.7 ± 0.2 mmol/L
U-creatinine [3]: 3.4 ± 0.9 μmol/ml urine/kg BW/h
U-protein [3]: 0.96 ± 0.26 μmol/ml urine/kg BW/h
U-sodium [3]: 46 ± 11 μmol/ml urine/kg BW/h
U-urea [3]: 337 ± 89 μmol/ml urine/kg BW/h
Urine volume [3]: 1.8 ± 0.2 ml/kg BW/h
CYR61 [gene expression] ([3]; renal cortex): 274 ± 21 rel. expression
Lipocalin-2 [gene expression] ([3]; renal cortex): 119 ± 9 rel. expression
Diastolic blood pressure [4]: 144 ± 6 mmHg
Heart rate [4]: 326 ± 9 beats/min
Left ventricular hypertrophy (LVS/RV ratio, mg/mg) [4]: 4.5 ± 0.2 mg/mg
Left-ventricular end-diastolic pressure [4]: 10.22 ± 1.6 mmHg
Left-ventricular pressure [4]: 196 ± 5 mmHg
Pressure decrease over time [4]: −10680 ± 524 mmHg/s
Pressure increase over time [4]: 9419 ± 383 mmHg/s
Systolic blood pressure [4]: 205 ± 5 mmHg
